Results taken from patent US20250120964A1, “USE OF NOVEL MOLECULAR GLUE” (ASTROGEN, INC., priority 2023, published 2025).

How the values were obtained:
[1] = system: 83NS (GSC cell line derived from a GBM patient) orthotopic glioblastoma model; experiment: In vivo orthotopic glioblastoma xenograft model, survival; conditions: mice, oral daily 50 mg/kg for 4 weeks, 83NS orthotopic model
Protocol: An in vivo experiment was carried out using a xenograft model. Specifically, 83NS (GSC cell line derived from a GBM patient) was used to construct an orthotopic glioblastoma model in such a way that 1×10^4 cells were injected into the brain of each of mice (n=16) at a volume of 3 μl. Thereafter, a vehicle was administered to mice (n=8), and AST-DT-218 was orally administered daily to the remaining mice (n=8) at a concentration of 50 mg/kg for 4 weeks, […]. On the other hand, the drug to be administered was changed to AST-DT-135, and the same experiment was carried out.

U87 cells [2] = experiment: Propidium iodide (PI) apoptosis assay; type: cell-based; conditions: flow cytometry
Protocol: A PI apoptosis assay was carried out to check whether AST-DT-218 induces DNA fragmentation and apoptosis as in Experimental Example 3-1. A PI detection kit was prepared, propidium iodide (PI) was added to the U87 cells that had been treated with AST-DT-218, and a reaction was allowed to proceed at room temperature in a dark room for 10 minutes. Then, PI fluorescence was measured using a flow cytometry apparatus (FIG. 4).

U87 cells [3] = experiment: Measurement of sub G1 population (flow cytometry); type: cell-based; conditions: 48 hours, 0.5 μM and 1 μM
Protocol: The sub G1 population was measured to check whether AST-DT-218 induces DNA fragmentation and apoptosis as in Experimental Example 3-1. […] The value of the sub G1 population of cells was measured using a flow cytometry apparatus (FIG. 5).

[4] = system: U373 brain cancer cell line; experiment: In vitro cell survival assay (nuclear staining), U373; type: cell-based; conditions: Homo sapiens, U373 MG; U373, 48 hours treatment, cell number by nuclear staining
Protocol: (§1) An in vitro experiment was carried out to check whether the compound (AST-DT-218) prepared in Example 2 was effective in the cell death in the brain cancer. First, brain cancer cell lines (U87, U373, and SK-N-SH) were cultured in the respective flasks to prepare cells that had reached the logarithmic growth stage. Then, the cells were washed with PBS, harvested with trypsin, centrifuged to adjust the cell density, and then resuspended in a suitable culture medium, and the cells were dispensed into a 96-well plate. The culture was carried out until the cells were attached to the plate and stabilized. AST-DT-218 and temozolomide, a conventional therapeutic agent for glioblastoma, were prepared and diluted at various concentrations (½ dilution from the highest concentration of 50 μM, 10-point). The cells in the well of the plate were treated for 48 hours with each compound at individual concentrations, and the cells were cultured to react with the compound. After the culture was completed, the number of cells was measured through the nuclear staining of the cells to evaluate the cell survival rate (FIG. 1), and IC50 was calculated (Table 2).

[5] = system: SK-N-SH brain cancer cell line; experiment: In vitro cell survival assay (nuclear staining), SK-N-SH; type: cell-based; conditions: Homo sapiens, 48 hours treatment, cell number by nuclear staining
Protocol: as §1

U87 cells [6] = experiment: Colony-formation assay; type: cell-based; conditions: cultured about two weeks, crystal violet
Protocol: U87 cells, which are a brain cancer cell line, were cultured, the cells were separated using Trypsin-EDTA when the cells grew sufficiently, the cells were distributed uniformly on a 12-well plate, and the cells were treated with AST-DT-218 in each well after being attached. Then, the cells were cultured for about two weeks in an environment of 37° C. and about 5% CO2. When the cultivation was completed, the cells were fixed. Then, the colonies were stained with a crystal violet solution, and after the staining, the colonies were washed with PBS to remove background staining. A microscope was used to observe the colonies, and the number and size of the colonies were measured and quantified (FIG. 2).

[7] = system: U87 glioblastoma-derived brain cancer cell line; experiment: Dose response curve (DRC), cell survival, U87; type: cell-based
Protocol: (§2) The DRC was created in order to check whether AST-DT-218 is effective in the cell death in the brain cancer. First, glioblastoma-derived brain cancer cell lines (U87 and U373) were cultured in the respective flasks to prepare cells that had reached the logarithmic growth stage. Then, the cells were washed with PBS, harvested with trypsin, centrifuged to adjust the cell density, and then resuspended in a suitable culture medium, and the cells were dispensed into a 96-well plate. Cells were cultured until they were attached to the plate and stabilized, AST-DT-218 and a control group (lenalidomide, pomalidomide) were prepared and diluted to a variety of concentrations (½ dilution from the highest concentration of 10 μM, 10-point). The cells in the well of the plate were treated for 48 hours with each compound at individual concentrations, and the cells were cultured to react with the compound. After the culture was completed, the number of cells was measured through the nuclear staining of the cells to evaluate the cell survival rate. The cell survival rate at each concentration was measured to collect data. Then, the DRC was created (FIG. 6 and FIG. 7), and IC50 was calculated (Table 3).

[8] = system: U87 brain cancer cell line; experiment: In vitro cell survival assay (nuclear staining), U87; type: cell-based; conditions: for IC50: U87, 48 hours treatment, cell number by nuclear staining
Protocol: as §1

U87 cells [9] = experiment: Western blotting of gamma-H2AX and cleaved PARP; type: cell-based
Protocol: The following experiments were carried out to check whether AST-DT-218 induces DNA fragmentation and apoptosis. First, U87 cells were cultured, the cells were separated using Trypsin-EDTA when the cells grew sufficiently, the cells were plated and distributed uniformly on a 12-well plate, and the cells were treated with AST-DT-218 after being attached. Subsequently, the cells were washed with PBS, proteins were extracted using a cell lysis buffer, and the cell extract was centrifugated to collect the supernatant. Then, protein samples having the same concentration were loaded onto an SDS-PAGE gel and subjected to electrophoresis, and the proteins were transferred to a PVDF membrane. After blocking the membrane with 5% skim milk (or BSA), each of the antibodies against γ-H2AX (DNA damage marker), cleaved PARP (apoptosis marker), and beta-actin was treated at 4° C. for 16 hours. The Western blotting results were analyzed to evaluate the expression levels of gamma-H2AX and cleaved PARP. Beta-actin was used as a loading control to check the consistency of the protein loading.

[10] = system: U373 glioblastoma-derived brain cancer cell line; experiment: Dose response curve (DRC), cell survival, U373; type: cell-based; conditions: Homo sapiens, U373 MG; Glioblastoma U373, 48 hours, highest concentration 10 μM; read-out: IC50 of AST-DT-218, U373
Protocol: as §2

| SMILES | survival rate (Kaplan-Meier analysis) versus vehicle [1] | DNA fragmentation and apoptosis (PI fluorescence) (U87 cells [2]) | value of the sub G1 population (U87 cells [3]) | IC50 [4] [µM] | IC50 [5] [µM] | formation of colonies (U87 cells [6]) | IC50 ([7]; Glioblastoma U87, 48 hours, highest concentration 10 μM, read-out: IC50 of AST-DT-218, U87) [µM] | cell death of brain cancer cells compared with lenalidomide and pomalidomide ([7]; U87 and U373, DRC) | IC50 [8] [µM] | cell death efficacy compared with temozolomide ([8]; brain cancer cell lines U87, U373, SK-N-SH, summary of Table 2) | DNA fragmentation and apoptosis (expression of gamma-H2AX and cleaved PARP) (U87 cells [9]) | IC50 [10] [µM] |
| --- | --- | --- | --- | --- | --- | --- | --- | --- | --- | --- | --- | --- |
| CCC[C@H](C)Nc1cccc2c1C(=O)N(C1CCC(=O)NC1=O)C2=O (stereo partly drawn) [AST-DT-135, 2-(2,6-dioxopiperidin-3-yl)-4-(((S)-pentan-2-yl)amino)isoindoline-1,3-dione] | significantly increased survival rate |  |  |  |  |  |  |  |  |  |  |  |
| COc1ccc([C@@H](C)Nc2cccc3c2C(=O)N(C2CCC(=O)NC2=O)C3=O)cc1 (stereo partly drawn) [AST-DT-218, 2-(2,6-dioxopiperidin-3-yl)-4-(((R)-1-(4-methoxyphenyl)ethyl)amino)isoindoline-1,3-dione] | significantly increased survival rate | induced DNA fragmentation and apoptosis | increased | 0.7 | 0.239 | significantly reduced the formation of colonies | 3.36 | effective in the cell death of the brain cancer cells | 3.39 | efficacy superior to temozolomide | induced DNA fragmentation and apoptosis | 1.24 |
| Cn1nnc2c(C(N)=O)ncn2c1=O [Temozolomide, temozolomide, reference compound] |  |  |  |  | 24.6 |  |  |  | 291 |  |  |  |
